PMC6272348, “Four New Pentasaccharide Resin Glycosides from Ipomoea cairica with Strong α-Glucosidase Inhibitory Activity” (Molecules, 2015)

Molecular target: α-glucosidase
Assay: α-glucosidase inhibition assay (PNPG substrate)
Format: biochemical
Settings: pH 6.8, 37 °C, 10 min, 0.01 M PNPG substrate, 1 U/mL enzyme; means ± SD of three independent replicates; read-out: α-Glucosidase Inhibition Contstant (IC50)
Description: The a-glucosidase inhibition assay was performed according to a slightly modified method of Pierre et al.. α-Glucosidase was purchased from Sigma (San Francisco, CA, USA, No. M0035-15). The inhibition was measured spectrophotometrically at pH 6.8 and at 37 °C for 10 min, using 0.01 M p-nitrophenyl a-D-glucopyranoside (PNPG) from Sigma (No. M0103) as a substrate and 1 U/mL of enzyme, in 0.067 M KH2PO4-Na2HPO4 buffer. […] The increment in absorption at 410 nm due to the hydrolysis of PNPG by α-glucosidase was monitored continuously with an automatic multi-functional microplate reader.

| IC50 | SMILES |
| --- | --- |
| 26.2 ± 4.6 µM | CCCCCC1CCCCCCCCCC(=O)OC2C(OC(C)C(OC3OC(C)C(OC4OC(C)C(OC(=O)C(C)CC)C(OC(=O)C=Cc5ccccc5)C4O)C(OC4OC(C)C(O)C(O)C4O)C3OC(=O)CCC)C2O)OC2C(O1)OC(CO)C(O)C2O (stereo not shown) [Compound 2, Cairicoside II] |
| 28.9 ± 1.4 µM | CCCCCCCCCC(=O)OC1C(OC2C(C)OC3OC4C(OC(CCCCC)CCCCCCCCCC(=O)OC3C2O)OC(CO)C(O)C4O)OC(C)C(OC2OC(C)C(OC(=O)C(C)CC)C(OC(=O)C=Cc3ccccc3)C2O)C1OC1OC(C)C(O)C(O)C1O (stereo not shown) [Compound 4, Cairicoside IV] |
| 21.4 ± 2.9 µM | CCCCCC1CCCCCCCCCC(=O)OC2C(OC(C)C(OC3OC(C)C(OC4OC(C)C(OC(=O)C(C)CC)C(OC(=O)C=Cc5ccccc5)C4O)C(OC4OC(C)C(O)C(O)C4O)C3OC(=O)C(C)CC)C2O)OC2C(O1)OC(CO)C(O)C2O [Compound 1, (S)-jalapinolic acid 11-O-α-L-rhamnopyranosyl-(1→3)-O-[3-O-trans-cinnamoyl-4-O-(S)-2-methyl-butyryl-α-L-rhamnopyranosyl-(1→4)]-O-[2-O-(S)-2-methylbutyryl]-α-L-rhamnopyranosyl-(1→4)-O-α-L-rhamnopyranosyl-(1→2)-O-β-D-glucopyranoside, intramolecular 1,2''-ester] |
| 30.4 ± 3.9 µM | CCCCCCCC(=O)OC1C(OC2C(C)OC3OC4C(OC(CCCCC)CCCCCCCCCC(=O)OC3C2O)OC(CO)C(O)C4O)OC(C)C(OC2OC(C)C(OC(=O)C(C)CC)C(OC(=O)C=Cc3ccccc3)C2O)C1OC1OC(C)C(O)C(O)C1O (stereo not shown) [Compound 3, Cairicoside III] |
